Test results as given in patent US8207174B2, “Aryloxypropanolamines, methods of preparation therof and use of aryloxypropanolamines as medicaments” (4SC AG, priority 2007, dated 2012).

Assays:
[1] = molecular target: T1, human recombinant adrenergic β3 receptor (Homo sapiens, UniProt P13945); assay: Cyclic AMP accumulation assay (HTRF), agonist mode; type: cell-based; settings: agonistic activity at β3-adrenoceptor, CHO-K1 β3 cells, cAMP
T1 construct: host or cells: CHO-K1
Experimental: (Cyclic Amp Accumulation Assay)
Functional response of cells (agonistic or antagonistic) to the test compounds was tested by measurement of cyclic AMP formation. Therefore cyclic AMP was quantitatively determined by HTRF® (Homogeneous Time-Resolved Fluorescence) technology (Cisbio International) using a stable cell line CHO-K1 β3 expressing the human recombinant adrenergic β3 receptor (Euroscreen).
The CHO-K1 β3 cell line was maintained in Ham's F12 medium containing 10% fetal bovine serum, 400 μg/ml geneticin (G418), 100 U/mL penicillin and 100 μg/mL streptomycin (all PAA) at 37° C. and 5% CO2. Cells in mid-log phase, grown in media without antibiotics during 18 h prior to the experiment, were detached by gentle flushing with 2 ml PBS-EDTA pH 7.5 (Cambrex) and resuspended in 8 mL of medium without antibiotics. Cells were then counted, centrifuged in a 30 mL PP tube (Corning) at 2000 rpm for 1 min and resuspended in HBSS/20 mM HEPES/0.05% BSA buffer (all PAA) including 1 mM IBMX (Sigma). Cells were then dispensed at 3.2×10^5−3.6×10^5 cells/well in black 96-half well microtiter plates (Corning). After addition of the test compounds for dose response curves the plates were incubated for 10 min at room temperature.
cAMP HTRF® Kit reagents were then added as recommended by the manufacturer and plates were sealed with plate sealer. After 1 hour of incubation the plates were read in a Tecan Ultra Reader using the “multilabeling” option of Tecan Xfluor4 software with the following parameters, excitation filter 320 nm, mirror dichroic2, lag time 150 μs, integration time 500 μs, number of flashes 10, optimal gain and z-position. For measurement 1 an emission filter at 620 nm and for measurement 2 an emission filter at 665 nm was chosen.
EC50 value calculation for the agonist assay and IC50 value calculation for the antagonist assay, respectively, were performed with the MS Excel Solver function based on a four-parameter fit.

[2] = tested on: β3 over β1- and β2-adrenoceptors; assay: Overall selectivity A×B from radioligand binding (β1, β2, β3) and functional β3 assay; set-up: species or system human; settings: A=Ki(β1)/Ki(β3); B=Ki(β2)/EC50(β3); overall = A multiplied by B
Experimental: Selectivity for β3 over the other two adrenoceptors was thus defined as:
A) selectivity factor for β3 over β1=Ki(β1)/Ki(β3);
B) selectivity factor for β3 over β2=Ki(β2)/EC50(β3);
overall selectivity was determined as factor A) multiplied by factor B)
Membrane preparations containing human β1-, β2- or β3-adrenergic receptors were purchased from Euroscreen.
Determination of IC50 deployed a competition binding experiment where an unlabeled test compound competes with the radioligand for the receptor's binding site.
For competition binding experiments 0.1 μg/μL β3 membranes were pre-incubated with the respective compounds at r.t. for 10 minutes. The binding buffer consisted of 25 mM Hepes, 1 mM EDTA, 0.5% BSA pH 7.4. All incubation steps were done in a 96 well Masterblock PP/1 mL (Greiner), the total assay volume was 100 μL.
The reaction mixtures were transferred to a 96 well UnifilterGF/B filter plate (Millipore), pre-soaked in 0.5% BSA, using the PerkinElmer filtermate. Each well was washed with 8×1 mL ice cold binding buffer supplemented with 0.5M NaCl. The GF/B filter plates were dried for 5 min on the filtermate. To each well, 50 μL OptiPhase scintillation cocktail (PerkinElmer) was added and incubated at r.t. for 10 min.
Bound radioactivity was quantified in a Wallac-Microbeta plate reader (PerkinElmer). Each well was counted for 2 min in top-count mode.
For competition binding experiments 0.25 μg/well β1 or 0.5 μg/well β2 membranes were pre-incubated with the respective compounds at r.t. for 10 minutes. […] All incubation steps were done in a 96 well Masterblock PP/1 mL (Greiner), the total assay volume was 250 μL.
The reaction mixtures were transferred to a 96 well UnifilterGF/B filter plate (Millipore), pre-soaked in 0.5% PEI, using the PerkinElmer filtermate, Each well was wash with 8×1 mL ice cold binding buffer. The GF/B filter plates were dried for 5 min on the filtermate. To each well 50 μL OptiPhase scintillation cocktail (PerkinElmer) was added and incubated at r.t. for 10 min.
Bound radioactivity was quantified in a Wallac-Microbeta plate reader (PerkinElmer). Each well was counted for 2 min in top-count mode

T1 sequence (P13945 whole entry): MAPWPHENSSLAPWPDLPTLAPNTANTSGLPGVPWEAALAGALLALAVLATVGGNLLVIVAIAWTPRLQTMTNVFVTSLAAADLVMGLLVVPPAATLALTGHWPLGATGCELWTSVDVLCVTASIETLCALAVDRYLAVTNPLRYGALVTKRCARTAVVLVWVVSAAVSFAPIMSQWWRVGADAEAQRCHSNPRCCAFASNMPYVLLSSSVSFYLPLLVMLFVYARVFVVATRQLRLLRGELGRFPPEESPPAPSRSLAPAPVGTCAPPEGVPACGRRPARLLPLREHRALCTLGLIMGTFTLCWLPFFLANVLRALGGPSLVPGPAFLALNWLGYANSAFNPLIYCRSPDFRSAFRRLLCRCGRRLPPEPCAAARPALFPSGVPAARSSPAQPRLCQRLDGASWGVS

| SMILES | EC50 [1] | selectivity [A x B] [2] |
| --- | --- | --- |
| Cc1nc(N2CCC(NCC(O)COc3ccc(O)cc3)CC2)c2ccsc2n1 (stereo not drawn) [Example 5, 4-(2-hydroxy-3-(1-(2-methylthieno[2,3-d]pyrimidin-4-yl)piperidin-4-ylamino)propoxy)phenol] | 11 to 100 nM | ++ (A×B=101-1000) |
| Cc1cc(C)nc(N2CCC(NCC(O)COc3ccc(O)cc3)CC2)n1 (stereo not drawn) [Example 8, 4-(3-(1-(4,6-dimethylpyrimidin-2-yl)piperidin-4-ylamino)-2-hydroxypropoxy)phenol] | 11 to 100 nM | 0 (A×B<10) |
| CN(CC(O)COc1ccc(O)cc1)C1CCN(c2ncnc3scc(-c4ccc(F)cc4)c23)CC1 (stereo not drawn) [Example 11, 4-(3-((1-(5-(4-fluorophenyl)thieno[2,3-d]pyrimidin-4-yl)piperidin-4-yl)(methyl)amino)-2-hydroxypropoxy)phenol] | > 100 nM | 0 (A×B<10) |
| CCOC(=O)c1cc(OCC(O)CNC2CCN(c3ncnc4scc(-c5ccccc5)c34)CC2)ccc1O (stereo not drawn) [Example 12] | > 100 nM | 0 (A×B<10) |
| OCc1cc(OCC(O)CNC2CCN(C3=NCNc4scc(-c5ccccc5)c43)CC2)ccc1O (stereo not drawn) [Example 14, 4-(2-hydroxy-3-(1-(5-phenyl-1,2-dihydrothieno[2,3-d]pyrimidin-4-yl)piperidin-4-ylamino)propoxy)-2-(hydroxymethyl)phenol] | 0.01 to 0.99 nM | +++ (A×B>1000) |
| CCOC(=O)c1cc(OCC(O)CNC2CCN(c3ncnc4scc(C)c34)CC2)ccc1O (stereo not drawn) [Example 17, ethyl 2-hydroxy-5-(2-hydroxy-3-(1-(5-methylthieno[2,3-d]pyrimidin-4-yl)piperidin-4-ylamino)propoxy)benzoate] | > 100 nM | 0 (A×B<10) |
| Cc1nc(N2CCC(NCC(O)COc3ccc(O)c(CO)c3)CC2)c2ccsc2n1 (stereo not drawn) [Example 19, 4-(2-hydroxy-3-(1-(2-methylthieno[2,3-d]pyrimidin-4-yl)piperidin-4-ylamino)propoxy)-2-(hydroxymethyl)phenol] | 1 to 10 nM | +++ (A×B>1000) |
| CCOC(=O)c1cc(OCC(O)CNC2CCN(c3ncnc4sc(-c5ccccc5)c(C)c34)CC2)ccc1O (stereo not drawn) [Example 20, ethyl 2-hydroxy-5-(2-hydroxy-3-(1-(5-methyl-6-phenylthieno[2,3-d]pyrimidin-4-yl)piperidin-4-ylamino)propoxy)benzoate] | > 100 nM | 0 (A×B<10) |
| CCOC(=O)c1cc(OCC(O)CNC2CCN(c3ncnc4ccsc34)CC2)ccc1O (stereo not drawn) [Example 22, ethyl 2-hydroxy-5-(2-hydroxy-3-(1-(thieno[3,2-d]pyrimidin-4-yl)piperidin-4-ylamino)propoxy)benzoate] | > 100 nM | 0 (A×B<10) |
| Cc1cc(C)nc(N2CCC(NCC(O)COc3ccc(O)c(CO)c3)CC2)n1 (stereo not drawn) [Example 24, 4-(3-(1-(4,6-dimethylpyrimidin-2-yl)piperidin-4-ylamino)-2-hydroxypropoxy)-2-(hydroxymethyl)phenol] | 1 to 10 nM | +++ (A×B>1000) |
| CCOC(=O)c1cc(OCC(O)CNC2CCN(c3ncnc4scc(-c5cccs5)c34)CC2)ccc1O (stereo not drawn) [Example 25, ethyl 2-hydroxy-5-(2-hydroxy-3-(1-(5-(thiophen-2-yl)thieno[2,3-d]pyrimidin-4-yl)piperidin-4-ylamino)propoxy)benzoate] | > 100 nM | 0 (A×B<10) |
| COC(=O)c1ccc(OCC(O)CNC2CCN(c3ncnc4scc(-c5ccccc5)c34)CC2)cc1O (stereo not drawn) [Example 28, methyl 2-hydroxy-4-(2-hydroxy-3-(1-(5-phenylthieno[2,3-d]pyrimidin-4-yl)piperidin-4-ylamino)propoxy)benzoate] | > 100 nM | 0 (A×B<10) |
| CCOC(=O)c1cc(O)ccc1OCC(O)CNC1CCN(c2ncnc3scc(-c4ccccc4)c23)CC1 (stereo not drawn) [Example 32, ethyl 5-hydroxy-2-(2-hydroxy-3-(1-(5-phenylthieno[2,3-d]pyrimidin-4-yl)piperidin-4-ylamino)propoxy)benzoate] | 1 to 10 nM | + (A×B=10-100) |
| COC(=O)c1ccc(O)cc1OCC(O)CNC1CCN(c2ncnc3scc(-c4ccccc4)c23)CC1 (stereo not drawn) [Example 34, methyl 4-hydroxy-2-(2-hydroxy-3-(1-(5-phenylthieno[2,3-d]pyrimidin-4-yl)piperidin-4-ylamino)propoxy)benzoate] | > 100 nM | 0 (A×B<10) |
| Cc1csc2ncnc(N3CCC(NCC(O)COc4cccc(CO)c4)CC3)c12 (stereo not drawn) [Example 37, 1-(3-(hydroxymethyl)phenoxy)-3-(1-(5-methylthieno[2,3-d]pyrimidin-4-yl)piperidin-4-ylamino)propan-2-ol] | 11 to 100 nM | 0 (A×B<10) |
| Cc1nc(N2CCC(NCC(O)COc3cccc(CO)c3)CC2)c2ccsc2n1 (stereo not drawn) [Example 38, 1-(3-(hydroxymethyl)phenoxy)-3-(1-(2-methylthieno[2,3-d]pyrimidin-4-yl)piperidin-4-ylamino)propan-2-ol] | > 100 nM | 0 (A×B<10) |
| Cc1c(-c2ccccc2)sc2ncnc(N3CCC(NCC(O)COc4cccc(CO)c4)CC3)c12 (stereo not drawn) [Example 39, 1-(3-(hydroxymethyl)phenoxy)-3-(1-(5-methyl-6-phenylthieno[2,3-d]pyrimidin-4-yl)piperidin-4-ylamino)propan-2-ol] | > 100 nM | 0 (A×B<10) |
| OCc1cccc(OCC(O)CNC2CCN(c3ncnc4scc(-c5ccc(F)cc5)c34)CC2)c1 (stereo not drawn) [Example 40, 1-(1-(5-(4-fluorophenyl)thieno[2,3-d]pyrimidin-4-yl)piperidin-4-ylamino)-3-(3-(hydroxymethyl)phenoxy)propan-2-ol] | 11 to 100 nM | + (A×B=10-100) |
| CN(CC(O)COc1cccc(CO)c1)C1CCN(c2ncnc3scc(-c4ccccc4)c23)CC1 (stereo not drawn) [Example 41, 1-(3-(hydroxymethyl)phenoxy)-3-(methyl(1-(5-phenylthieno[2,3-d]pyrimidin-4-yl)piperidin-4-yl)amino)propan-2-ol] | > 100 nM | + (A×B=10-100) |
| Cc1c(-c2ccccc2)sc2ncnc(N3CCC(N(C)CC(O)COc4cccc(CO)c4)CC3)c12 (stereo not drawn) [Example 42, 1-(3-(hydroxymethyl)phenoxy)-3-(methyl(1-(5-methyl-6-phenylthieno[2,3-d]pyrimidin-4-yl)piperidin-4-yl)amino)propan-2-ol] | > 100 nM | 0 (A×B<10) |
| OCc1ccc(OCC(O)CNC2CCN(c3ncnc4scc(-c5ccc(F)cc5)c34)CC2)cc1 (stereo not drawn) [Example 44, 1-(1-(5-(4-fluorophenyl)thieno[2,3-d]pyrimidin-4-yl)piperidin-4-ylamino)-3-(4-(hydroxymethyl)phenoxy)propan-2-ol] | > 100 nM | + (A×B=10-100) |
